Laboratory results as given in patent US8338597B2, “Pyridones useful as inhibitors of kinases” (Vertex Pharmaceuticals Incorporated, priority 2004, dated 2012).
pKi: −log10 of the molar value.

Columns and labels:
Itk = biological target: T1, Itk (Homo sapiens, UniProt Q08881); experiment: ITK inhibition assay, radioactive-phosphate incorporation; format: biochemical; settings: [γ-33P]ATP, SAM68 peptide, 25° C.
T1 sequence (Q08881 1-620): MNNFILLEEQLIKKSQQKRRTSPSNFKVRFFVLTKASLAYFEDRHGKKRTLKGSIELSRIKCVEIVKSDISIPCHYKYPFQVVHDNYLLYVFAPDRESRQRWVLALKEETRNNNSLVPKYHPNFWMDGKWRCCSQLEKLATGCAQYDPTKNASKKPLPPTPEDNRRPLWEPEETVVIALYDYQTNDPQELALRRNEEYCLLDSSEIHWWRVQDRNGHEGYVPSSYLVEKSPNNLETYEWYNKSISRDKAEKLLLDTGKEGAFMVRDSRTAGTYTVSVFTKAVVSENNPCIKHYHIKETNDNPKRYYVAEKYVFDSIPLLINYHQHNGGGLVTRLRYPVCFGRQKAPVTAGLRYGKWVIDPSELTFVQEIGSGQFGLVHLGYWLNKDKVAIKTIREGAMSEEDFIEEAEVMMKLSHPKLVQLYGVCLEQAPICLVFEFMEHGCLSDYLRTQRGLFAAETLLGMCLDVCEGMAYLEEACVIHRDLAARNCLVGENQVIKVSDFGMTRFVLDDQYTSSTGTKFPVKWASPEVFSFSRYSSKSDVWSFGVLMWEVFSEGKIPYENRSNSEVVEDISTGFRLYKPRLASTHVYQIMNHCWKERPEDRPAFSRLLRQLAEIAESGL
Description: Assays were carried out in a mixture of 20 mM MOPS (pH 7.0), 10 mM MgCl2, 0.1% BSA and 1 mM DTT. […] Assays were carried out at 25° C. in the presence of 50 nM Itk. An assay stock buffer solution was prepared containing all of the reagents listed above, with the exception of ATP and the test compound of interest.
The reaction was stopped after 10 minutes by the addition of […] 0.2M phosphoric acid+0.01% TWEEN 20. A multiscreen phosphocellulose filter 96-well plate (Millipore, Cat no. MAPHN0B50) was pretreated with 100 μL 0.2M phosphoric acid+0.01% TWEEN 20 prior to the addition of […] of the stopped assay mixture. The plate was washed with 4×200 μL 0.2M phosphoric acid+0.01% TWEEN 20.
Ki(app) data were calculated from non-linear regression analysis of the initial rate data using the Prism software package (GraphPad Prism version 3.0cx for Macintosh, GraphPad Software, San Diego Calif., USA).

Rlk = biological target: T2, Rlk (Homo sapiens, UniProt P42681); experiment: RLK inhibition assay, standard coupled enzyme assay; format: biochemical; settings: 100 μM ATP, 40 nM Rlk, 30° C.
T2 sequence (P42681 1-527): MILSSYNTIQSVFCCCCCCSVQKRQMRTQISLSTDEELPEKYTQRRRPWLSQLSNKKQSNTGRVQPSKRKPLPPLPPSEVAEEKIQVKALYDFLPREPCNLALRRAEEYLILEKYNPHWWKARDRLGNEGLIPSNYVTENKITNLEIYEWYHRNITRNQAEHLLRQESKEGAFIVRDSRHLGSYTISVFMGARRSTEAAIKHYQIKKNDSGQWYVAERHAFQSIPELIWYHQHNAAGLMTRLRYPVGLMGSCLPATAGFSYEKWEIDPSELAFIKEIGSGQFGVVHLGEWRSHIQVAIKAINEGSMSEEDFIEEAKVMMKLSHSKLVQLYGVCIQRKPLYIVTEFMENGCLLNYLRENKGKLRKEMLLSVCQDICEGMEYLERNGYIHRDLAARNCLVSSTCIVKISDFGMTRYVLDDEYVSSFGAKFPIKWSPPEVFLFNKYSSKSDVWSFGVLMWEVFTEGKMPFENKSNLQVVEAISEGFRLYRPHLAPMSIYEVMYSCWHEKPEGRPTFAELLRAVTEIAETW
Description: Compounds were screened for their ability to inhibit Rlk using a standard coupled enzyme assay (Fox et al., Protein Sci., (1998) 7, 2249). Assays were carried out in a mixture of 20 mM MOPS (pH 7.0), 10 mM MgCl2, 0.1% BSA and 1 mM DTT. Final substrate concentrations in the assay were 100 μM ATP (Sigma Chemicals) and 10 μM peptide (Poly Glu:Tyr 4:1). Assays were carried out at 30° C. and in the presence of 40 nM Rlk. Final concentrations of the components of the coupled enzyme system were 2.5 mM phosphoenolpyruvate, 300 μM NADH, 30 μg/ml pyruvate kinase and 10 μg/ml lactate dehydrogenase.
An assay stock buffer solution was prepared containing all of the reagents listed above, with the exception of ATP and the test compound of interest. 60 μl of the stock solution was placed in a 96 well plate followed by addition of […] of DMSO stock containing serial dilutions of the test compound (typically starting from a final concentration of 7.5 μM). The plate was preincubated for 10 minutes at 30° C. and the reaction initiated by addition of 5 μl of ATP. Initial reaction rates were determined with a Molecular Devices SpectraMax Plus plate reader over a 10 minute time course. IC50 and Ki data were calculated from non-linear regression analysis using the Prism software package (GraphPad Prism version 3.0cx for Macintosh, GraphPad Software, San Diego Calif., USA).

Compound	pKi (Itk)	pKi (Rlk)
CNc1nccc(-c2c[nH]c(=O)c(NC(=O)c3ccc(N4CCN(C(C)=O)CC4)cc3)c2)n1 [II-81]	> 7.00	> 6.00
CNc1cc(-c2c[nH]c(=O)c(NC(=O)c3ccc(C(C)(C)C)cc3)c2)ncn1 [II-17]	> 7.00	< 6.00
O=C1C=C(c2c[nH]c(=O)c(NC(=O)c3ccc(N4CCCCC4)cc3)c2)CCC1 [II-85]	6.00 to 7.00	< 6.00
CNCCNc1cccc(-c2c[nH]c(=O)c(NC(=O)c3ccc(C(C)(C)C)cc3)c2)n1 [II-35]	> 7.00	> 6.00
CNc1cc(-c2c[nH]c(=O)c(NC(=O)c3ccc(N4CCCCC4)cc3)c2)ccn1 [II-115]	–	< 6.00
CNc1cncc(-c2c[nH]c(=O)c(NC(=O)c3ccc(N4CC[C@@H](N(C)C)C4)cc3)c2)n1 [II-166]	> 7.00	< 6.00
CNc1cncc(-c2c[nH]c(=O)c(NC(=O)c3ccc(NCCCn4ccnc4)cc3)c2)n1 [II-168]	> 7.00	< 6.00
CNc1nccc(-c2c[nH]c(=O)c(NC(=O)c3ccc(N4CCCCC4)cc3)c2)n1 [II-40, N-(1,2-dihydro-5-(2-(methylamino)pyrimidin-4-yl)-2-oxopyridin-3-yl)-4-(piperidin-1-yl)benzamide]	> 7.00	> 6.00
O=C(Nc1cc(-c2ccncc2)c[nH]c1=O)c1ccc(N2CCNCC2)cc1 [Compound I-71]	> 7.00	< 6.00
CNc1cc(-c2c[nH]c(=O)c(NC(=O)c3ccc(N4CCCCC4)cc3)c2)ncn1 [II-46]	–	< 6.00
O=C1C=C(c2c[nH]c(=O)c(NC(=O)c3ccc(N4CCCCC4)cc3)c2)CC1 [II-87]	6.00 to 7.00	< 6.00
CNCCN(C)c1nccc(-c2c[nH]c(=O)c(NC(=O)c3ccc(N4CCCCC4)cc3)c2)n1 [II-65]	> 7.00	< 6.00
CCN(CC)CCN1CCN(c2ccc(C(=O)Nc3cc(-c4ccncc4)c[nH]c3=O)cc2)CC1 [Compound I-74]	> 7.00	< 6.00
CC(C)(C)c1ccc(C(=O)Nc2cc(-c3ccnc(NC4CCCNC4)n3)c[nH]c2=O)cc1 (stereo not shown) [II-29]	> 7.00	> 6.00
CNc1nccc(-c2c[nH]c(=O)c(NC(=O)c3ccc(N4CCN(CCCOC)CC4)cc3)c2)n1 [II-79]	> 7.00	> 6.00
CNc1cncc(-c2c[nH]c(=O)c(NC(=O)c3ccc(N4CCCCC4)cc3)c2)c1 [II-159]	–	< 6.00
CNc1cc(F)cc(-c2c[nH]c(=O)c(NC(=O)c3ccc(N4CCC[C@H]4CN4CCCC4)cc3)c2)n1 [II-171]	> 7.00	< 6.00
CC(C)(C)c1ccc(C(=O)Nc2cc(C3=CC(=O)CCC3)c[nH]c2=O)cc1 [II-83]	6.00 to 7.00	< 6.00
Cn1cc(-c2c[nH]c(=O)c(NC(=O)c3ccc(C(C)(C)C)cc3)c2)cn1 [II-15]	6.00 to 7.00	< 6.00
CNc1cncc(-c2c[nH]c(=O)c(NC(=O)c3ccc(OCCC4CCNCC4)cc3)c2)n1 [II-143]	> 7.00	< 6.00
CNc1cccc(-c2c[nH]c(=O)c(NC(=O)c3ccc(N4CCCCC4)cc3)c2)n1 [II-47]	–	< 6.00
COc1ccc(NC(=O)c2cc(-c3ccncc3)c[nH]c2=O)cc1OC [III-16]	6.00 to 7.00	–
N#Cc1cncc(-c2c[nH]c(=O)c(NC(=O)c3ccc(N4CCCCC4)cc3)c2)c1 [II-99]	6.00 to 7.00	–
O=C(Nc1ccc(N2CCOCC2)cc1)c1cc(-c2ccncc2)c[nH]c1=O [III-42]	> 7.00	–
O=C(Nc1ccc(N2CCCCC2)cc1)c1cc(-c2ccncc2)c[nH]c1=O [III-44]	> 7.00	–

Compound	pKi (Itk)	pKi (Rlk)
CNc1cncc(-c2c[nH]c(=O)c(NC(=O)c3ccc(OC4CCNCC4)cc3)c2)n1 [II-181]	> 7.00	–
CNc1nc(C)cc(-c2c[nH]c(=O)c(NC(=O)c3ccc(N4CCCCC4)cc3)c2)n1 [II-130]	> 7.00	–
O=C(Nc1cc(-c2cccc(CO)n2)c[nH]c1=O)c1ccc(N2CCCCC2)cc1 [II-121]	6.00 to 7.00	–
CNc1cc(-c2c[nH]c(=O)c(NC(=O)c3ccc(N4CCC[C@H]4CN4CCCC4)cc3)c2)ncn1 [II-136]	> 7.00	–
CNc1ccnc(-c2c[nH]c(=O)c(NC(=O)c3ccc(N4CCCCC4)cc3)c2)n1 [II-56]	6.00 to 7.00	–
O=C(Nc1cc(-c2cc(N[C@@H]3CCNC3)ncn2)c[nH]c1=O)c1ccc(N2CCCCC2)cc1 [II-45]	6.00 to 7.00	–
CNc1nccc(-c2c[nH]c(=O)c(NC(=O)c3ccc(Cc4ccccc4)cc3)c2)n1 [II-98]	6.00 to 7.00	–
CNc1cncc(-c2c[nH]c(=O)c(NC(=O)c3ccc(OCC4CCNCC4)cc3)c2)n1 [II-153]	> 7.00	–
O=C(Nc1cc(-c2ccncc2)c[nH]c1=O)c1ccc(N2CCN(CCOCCO)CC2)cc1 [Compound I-81]	> 7.00	–
O=C(Nc1cc(-c2cccc(NCCN3CCCC3)n2)c[nH]c1=O)c1ccc(N2CCCCC2)cc1 [II-104]	6.00 to 7.00	–
O=C(Nc1cc(-c2ccncc2)c[nH]c1=O)c1ccc(O)cc1 [Compound I-47]	6.00 to 7.00	–
CNc1cncc(-c2c[nH]c(=O)c(NC(=O)c3ccc(N4CCN(C)CC4)cc3)c2)n1 [II-155]	> 7.00	–
O=C(Nc1cc(-c2ccncc2)c[nH]c1=O)c1ccc(N2CCC(N3CCCC3)CC2)cc1 [Compound I-75]	6.00 to 7.00	–
CCC(C)[C@@H](CO)Nc1cccc(-c2c[nH]c(=O)c(NC(=O)c3ccc(N4CCCCC4)cc3)c2)n1 (stereo partly shown) [II-152]	6.00 to 7.00	–
Cn1cncc1-c1c[nH]c(=O)c(NC(=O)c2ccc(N3CCNCC3)cc2)c1 [II-144]	6.00 to 7.00	–
O=C(Nc1cc(-c2cccc(NC3(CO)CCCC3)n2)c[nH]c1=O)c1ccc(N2CCCCC2)cc1 [II-150]	6.00 to 7.00	–
CN(C)c1nccc(-c2c[nH]c(=O)c(NC(=O)c3ccc(C(C)(C)C)cc3)c2)n1 [II-21]	6.00 to 7.00	–
CNc1cncc(-c2c[nH]c(=O)c(NC(=O)c3ccc(N4CCC(CCO)CC4)cc3)c2)n1 [II-156]	> 7.00	–
CNc1cncc(-c2c[nH]c(=O)c(NC(=O)c3ccc(N4CCCNCC4)cc3)c2)n1 [II-146]	> 7.00	–
N#Cc1ccnc(-c2c[nH]c(=O)c(NC(=O)c3ccc(N4CCNCC4)cc3)c2)c1 [II-161]	6.00 to 7.00	–
CC(C)[C@@H](CO)Nc1cncc(-c2c[nH]c(=O)c(NC(=O)c3ccc(N4CCNCC4)cc3)c2)n1 [II-131]	> 7.00	–
CNCCCN(C)Cc1ccc(C(=O)Nc2cc(-c3ccncc3)c[nH]c2=O)cc1 [Compound I-85]	6.00 to 7.00	–
CC(C)(C)c1ccc(C(=O)Nc2cc(-c3cccc(NC4CCNCC4)n3)c[nH]c2=O)cc1 [II-32]	6.00 to 7.00	–
CSc1nccc(-c2c[nH]c(=O)c(NC(=O)c3ccc(N4CCCCC4)cc3)c2)n1 [II-52]	6.00 to 7.00	–
CNc1cc(-c2c[nH]c(=O)c(NC(=O)c3ccc(OCC4CCNCC4)cc3)c2)ncn1 [II-170]	> 7.00	–
